# Laboratory results as given in ChEMBL document CHEMBL1201862, “PubChem BioAssay data set” (2004).
# The source made the active and inactive calls.
# Legend:
# [1] = ARNT/TACC3 interaction disruptors, potency, confirmation, biochemical, AlphaScreen, cherry-picked samples (AID 651703); assay type: functional, Homo sapiens;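 further: His-tagged ARNT PAS-B domain paired with GST-TACC3 E629A dimer coactivator fragment; potency of inhibitors that break up the complex and lower AlphaScreen signal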
# [2] = StAR promoter reporter inhibition counter-screen, dose response, counter-screen for LRH-1 inverse agonist project, cell-based, luminescence, luciferase reporter (AID 651969); assay type: functional
# Steroidogenic factor 1 = Steroidogenic factor 1 (Homo sapiens, UniProt Q13285); experiment: Counterscreen for inverse agonists of the liver receptor homolog-1 (LRH-1; NR5A2): Luminescence-based cell-based high throughput dose response assay to identify inverse agonists of the Steroidogenic Factor 1 Nuclear Receptor (SF1; NR5A1).; assay type: functional
# Sequence of Steroidogenic factor 1 (Q13285 whole entry): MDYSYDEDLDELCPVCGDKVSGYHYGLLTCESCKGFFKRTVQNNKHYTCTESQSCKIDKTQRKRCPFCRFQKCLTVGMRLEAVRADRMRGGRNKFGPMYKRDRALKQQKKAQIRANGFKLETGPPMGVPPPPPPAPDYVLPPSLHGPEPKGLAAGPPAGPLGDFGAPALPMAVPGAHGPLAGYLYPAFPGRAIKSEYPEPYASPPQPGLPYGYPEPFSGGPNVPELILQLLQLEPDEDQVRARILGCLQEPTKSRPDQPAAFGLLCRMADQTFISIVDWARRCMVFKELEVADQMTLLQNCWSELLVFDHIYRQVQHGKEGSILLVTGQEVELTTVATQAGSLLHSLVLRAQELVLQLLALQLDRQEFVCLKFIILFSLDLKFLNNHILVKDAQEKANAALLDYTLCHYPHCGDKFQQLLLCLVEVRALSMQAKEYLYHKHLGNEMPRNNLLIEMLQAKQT
# [3] = target: Nuclear receptor subfamily 5 group A member 2 (Homo sapiens, UniProt O00482); assay type: functional, cell-based;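 further: HEK293T cells transfected with LRH-1 and a StAR promoter luciferase reporter; potency for inhibitors that lower LRH-1 driven reporter light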
# Sequence of Nuclear receptor subfamily 5 group A member 2 (O00482 whole entry): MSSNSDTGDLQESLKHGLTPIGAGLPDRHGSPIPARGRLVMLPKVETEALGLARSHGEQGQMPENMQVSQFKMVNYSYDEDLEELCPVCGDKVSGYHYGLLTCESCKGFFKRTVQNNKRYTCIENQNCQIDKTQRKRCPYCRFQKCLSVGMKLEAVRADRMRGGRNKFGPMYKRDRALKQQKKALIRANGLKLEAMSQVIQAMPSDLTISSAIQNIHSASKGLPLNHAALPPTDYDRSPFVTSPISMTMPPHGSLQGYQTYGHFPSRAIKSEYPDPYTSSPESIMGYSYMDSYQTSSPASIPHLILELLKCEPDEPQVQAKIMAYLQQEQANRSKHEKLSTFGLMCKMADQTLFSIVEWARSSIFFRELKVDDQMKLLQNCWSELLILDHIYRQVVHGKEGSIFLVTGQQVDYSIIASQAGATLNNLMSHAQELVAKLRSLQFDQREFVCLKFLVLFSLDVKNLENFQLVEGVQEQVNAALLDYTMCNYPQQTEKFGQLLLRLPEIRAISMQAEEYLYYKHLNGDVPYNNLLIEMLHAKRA
# [4] = inhibitors of firefly luciferase expression or activity, dose response, H4 neuroglioma cells, luminescence (AID 1990); assay type: functional, cell-based
# [5] = target: Arf-GAP with SH3 domain, ANK repeat and PH domain-containing protein 1 (Homo sapiens, UniProt Q9ULH1); assay type: functional;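 further: biochemical fluorescence polarization dose–response screen measuring inhibition of ASAP1; ASAP1 GAP domain stimulating GTP hydrolysis by truncated human ARF1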
# Sequence of Arf-GAP with SH3 domain, ANK repeat and PH domain-containing protein 1 (Q9ULH1 whole entry, the tested form may be a part): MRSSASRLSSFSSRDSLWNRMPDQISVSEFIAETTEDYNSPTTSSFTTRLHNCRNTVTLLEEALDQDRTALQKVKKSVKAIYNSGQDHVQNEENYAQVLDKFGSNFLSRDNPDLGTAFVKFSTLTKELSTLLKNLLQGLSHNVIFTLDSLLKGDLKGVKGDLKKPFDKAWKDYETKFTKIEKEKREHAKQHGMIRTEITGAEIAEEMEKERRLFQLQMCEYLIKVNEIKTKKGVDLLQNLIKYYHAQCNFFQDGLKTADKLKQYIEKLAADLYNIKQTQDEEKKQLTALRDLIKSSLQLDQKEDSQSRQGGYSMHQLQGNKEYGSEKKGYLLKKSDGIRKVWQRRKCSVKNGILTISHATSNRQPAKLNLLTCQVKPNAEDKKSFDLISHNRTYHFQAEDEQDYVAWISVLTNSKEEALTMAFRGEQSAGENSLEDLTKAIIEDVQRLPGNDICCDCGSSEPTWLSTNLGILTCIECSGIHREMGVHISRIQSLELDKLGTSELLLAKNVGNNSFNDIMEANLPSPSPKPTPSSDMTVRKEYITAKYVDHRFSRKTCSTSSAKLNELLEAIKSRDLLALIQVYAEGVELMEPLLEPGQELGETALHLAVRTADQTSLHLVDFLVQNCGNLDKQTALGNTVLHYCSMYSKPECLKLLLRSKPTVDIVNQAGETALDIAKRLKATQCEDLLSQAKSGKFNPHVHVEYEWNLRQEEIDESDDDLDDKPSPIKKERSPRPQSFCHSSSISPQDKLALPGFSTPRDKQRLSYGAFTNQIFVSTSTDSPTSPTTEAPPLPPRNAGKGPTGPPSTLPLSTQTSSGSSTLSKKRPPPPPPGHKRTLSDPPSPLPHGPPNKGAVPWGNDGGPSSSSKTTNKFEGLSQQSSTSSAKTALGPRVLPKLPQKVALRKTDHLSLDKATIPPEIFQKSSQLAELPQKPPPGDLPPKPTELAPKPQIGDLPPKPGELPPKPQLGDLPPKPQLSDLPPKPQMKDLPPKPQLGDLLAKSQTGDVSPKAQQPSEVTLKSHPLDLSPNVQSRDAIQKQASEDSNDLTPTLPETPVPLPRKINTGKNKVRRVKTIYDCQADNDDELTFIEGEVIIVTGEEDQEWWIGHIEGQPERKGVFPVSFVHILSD
# [6] = inhibitors of SNCA 5'UTR-driven reporter translation, confirmation, H4 neuroglioma cells, luminescence (AID 1988); assay type: functional, cell-based
# [7] = Luminescence Cell-Based Dose Response HTS to Identify Inhibitors of 5'UTR Stem-Loop Driven Prion Protein mRNA Translation in H4 Neuroglioblastoma Cells. [Related pubchem assays: 1827 (Project Summary), 1813 (Primary HTS)]; assay type: functional
# [8] = target: Hepatocyte nuclear factor 4-alpha (Homo sapiens, UniProt P41235); assay type: functional, cell-based;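 further: biochemical luminescence-based dose-response counterscreen measuring inhibition of HNF4 dimerization, run alongside a screen for blockers of ABHD5–perilipin-5 interaction; split luciferase complementation of HNF4 fusion proteins in cell lysate measuring dimerization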
# Sequence of Hepatocyte nuclear factor 4-alpha (P41235 whole entry, the tested form may be a part): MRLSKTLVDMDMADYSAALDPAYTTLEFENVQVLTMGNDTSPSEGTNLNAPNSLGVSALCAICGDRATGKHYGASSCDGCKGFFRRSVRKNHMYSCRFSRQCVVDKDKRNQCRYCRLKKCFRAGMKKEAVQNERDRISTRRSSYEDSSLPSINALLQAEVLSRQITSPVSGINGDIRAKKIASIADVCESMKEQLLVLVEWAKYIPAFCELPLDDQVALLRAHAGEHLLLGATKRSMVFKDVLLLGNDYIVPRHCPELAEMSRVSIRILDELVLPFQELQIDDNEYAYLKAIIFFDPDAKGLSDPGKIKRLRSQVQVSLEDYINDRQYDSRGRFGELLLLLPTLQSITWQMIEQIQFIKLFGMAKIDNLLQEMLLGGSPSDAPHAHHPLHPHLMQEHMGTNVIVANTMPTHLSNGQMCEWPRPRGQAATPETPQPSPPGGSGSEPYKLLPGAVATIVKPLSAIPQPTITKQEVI
# [9] = target: DNA repair and recombination protein RAD54-like (Homo sapiens, UniProt Q92698); experiment: inhibitors of human RAD54 branch migration, confirmation, biochemical, fluorescence, cherry-picked samples, dose series (AID 651657); assay type: functional
# Sequence of DNA repair and recombination protein RAD54-like (Q92698 whole entry): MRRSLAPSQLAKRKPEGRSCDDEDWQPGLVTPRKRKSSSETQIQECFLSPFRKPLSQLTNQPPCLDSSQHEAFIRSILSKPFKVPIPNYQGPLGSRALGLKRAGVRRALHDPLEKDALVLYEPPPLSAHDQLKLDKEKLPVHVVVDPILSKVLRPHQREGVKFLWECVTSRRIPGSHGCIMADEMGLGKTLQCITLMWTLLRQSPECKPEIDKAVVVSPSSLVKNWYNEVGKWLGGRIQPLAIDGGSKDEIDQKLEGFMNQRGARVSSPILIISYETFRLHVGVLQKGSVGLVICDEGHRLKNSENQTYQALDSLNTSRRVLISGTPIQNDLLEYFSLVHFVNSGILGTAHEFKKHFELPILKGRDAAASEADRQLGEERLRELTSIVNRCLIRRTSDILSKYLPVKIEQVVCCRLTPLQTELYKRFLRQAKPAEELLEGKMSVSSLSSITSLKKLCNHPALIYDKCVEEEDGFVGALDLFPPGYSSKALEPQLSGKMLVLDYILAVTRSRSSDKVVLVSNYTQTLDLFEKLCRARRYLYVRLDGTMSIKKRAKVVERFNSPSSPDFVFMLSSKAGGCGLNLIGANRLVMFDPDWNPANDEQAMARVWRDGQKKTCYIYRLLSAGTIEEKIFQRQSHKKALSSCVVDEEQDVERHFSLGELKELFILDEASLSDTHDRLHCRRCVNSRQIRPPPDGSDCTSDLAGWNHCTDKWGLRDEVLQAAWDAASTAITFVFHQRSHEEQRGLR
# [10] = target: T1, DNA repair protein RAD52 homolog (Homo sapiens, UniProt P43351); assay type: functional, biochemical
# T1 sequence (P43351 whole entry): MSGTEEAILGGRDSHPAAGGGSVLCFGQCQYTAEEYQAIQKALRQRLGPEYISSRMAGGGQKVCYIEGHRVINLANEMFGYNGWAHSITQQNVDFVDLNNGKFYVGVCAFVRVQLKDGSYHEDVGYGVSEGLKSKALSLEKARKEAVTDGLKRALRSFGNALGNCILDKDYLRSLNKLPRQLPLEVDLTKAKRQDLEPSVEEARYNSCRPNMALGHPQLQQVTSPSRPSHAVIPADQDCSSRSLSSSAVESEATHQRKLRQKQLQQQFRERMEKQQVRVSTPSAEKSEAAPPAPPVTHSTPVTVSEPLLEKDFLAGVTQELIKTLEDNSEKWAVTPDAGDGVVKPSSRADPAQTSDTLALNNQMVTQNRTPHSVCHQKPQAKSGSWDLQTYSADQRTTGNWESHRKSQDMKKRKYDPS
# [11] = target: T2, Apoptotic protease-activating factor 1 (Homo sapiens, UniProt O14727); assay type: functional
# T2 sequence (O14727 whole entry): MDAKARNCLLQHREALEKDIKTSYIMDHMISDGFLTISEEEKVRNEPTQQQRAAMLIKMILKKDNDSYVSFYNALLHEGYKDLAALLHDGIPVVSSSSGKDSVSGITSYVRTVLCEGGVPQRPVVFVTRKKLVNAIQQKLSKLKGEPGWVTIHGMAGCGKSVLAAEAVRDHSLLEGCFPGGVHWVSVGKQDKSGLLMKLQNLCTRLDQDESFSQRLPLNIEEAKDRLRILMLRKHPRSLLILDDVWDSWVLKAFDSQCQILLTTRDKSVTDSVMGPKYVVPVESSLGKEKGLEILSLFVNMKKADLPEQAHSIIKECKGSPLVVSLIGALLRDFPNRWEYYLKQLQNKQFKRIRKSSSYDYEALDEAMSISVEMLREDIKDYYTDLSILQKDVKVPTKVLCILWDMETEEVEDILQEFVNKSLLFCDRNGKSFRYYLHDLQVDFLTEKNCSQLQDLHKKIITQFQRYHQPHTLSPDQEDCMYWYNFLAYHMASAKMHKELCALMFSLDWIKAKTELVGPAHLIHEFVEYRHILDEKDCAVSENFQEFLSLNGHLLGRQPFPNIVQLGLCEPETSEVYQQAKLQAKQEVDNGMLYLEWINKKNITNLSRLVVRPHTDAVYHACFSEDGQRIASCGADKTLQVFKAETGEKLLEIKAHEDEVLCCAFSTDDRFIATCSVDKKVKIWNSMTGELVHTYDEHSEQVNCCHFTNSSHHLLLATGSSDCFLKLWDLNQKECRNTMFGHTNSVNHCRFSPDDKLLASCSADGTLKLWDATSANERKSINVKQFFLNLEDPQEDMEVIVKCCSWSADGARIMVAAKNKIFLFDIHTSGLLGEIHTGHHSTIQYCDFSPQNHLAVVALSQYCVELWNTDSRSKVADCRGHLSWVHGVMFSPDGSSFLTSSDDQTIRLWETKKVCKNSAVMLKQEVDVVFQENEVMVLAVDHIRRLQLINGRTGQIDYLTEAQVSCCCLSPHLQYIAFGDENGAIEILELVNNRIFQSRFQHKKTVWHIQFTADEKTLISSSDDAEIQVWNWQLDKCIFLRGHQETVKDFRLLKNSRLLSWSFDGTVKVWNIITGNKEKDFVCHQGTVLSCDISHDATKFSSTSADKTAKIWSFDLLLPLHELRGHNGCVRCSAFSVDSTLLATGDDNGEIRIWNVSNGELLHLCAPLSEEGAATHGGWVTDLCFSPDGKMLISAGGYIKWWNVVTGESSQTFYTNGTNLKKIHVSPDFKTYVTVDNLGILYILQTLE
# [12] = intracellular Trypanosoma cruzi inhibitors in host cells – cell-based, plate reader, cherry-pick samples, set 3, dose response (AID 651818); assay type: functional;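 further: compounds incubated with infected cells for about four days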
# Melanocortin receptor 4 = Melanocortin receptor 4 (Homo sapiens, UniProt P32245); assay type: functional, cell-based;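 further: Cell-based assay with luminescence read-out, confirmatory dose-response testing for agonist activity of biased ligands at MC4R; human U2OS cells with tagged receptor and beta-arrestin; potency of agonists that increase receptor coupling to beta-arrestin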
# Sequence of Melanocortin receptor 4 (P32245 whole entry): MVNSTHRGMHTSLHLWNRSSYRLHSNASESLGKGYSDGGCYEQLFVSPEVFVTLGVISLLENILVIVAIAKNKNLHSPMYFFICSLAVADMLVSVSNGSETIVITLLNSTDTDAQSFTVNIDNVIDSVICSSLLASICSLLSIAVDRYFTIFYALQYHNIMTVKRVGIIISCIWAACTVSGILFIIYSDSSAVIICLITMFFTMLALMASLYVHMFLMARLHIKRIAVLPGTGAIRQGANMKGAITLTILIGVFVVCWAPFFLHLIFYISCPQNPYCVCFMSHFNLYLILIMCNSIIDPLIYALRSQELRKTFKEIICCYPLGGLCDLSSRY
# [13] = cytotoxicity toward NIH3T3 fibroblasts, dose response, counter-screen, cell-based, ATP luminescence, mouse fibroblasts (AID 2010); assay type: functional;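 further: cells exposed to compound for about 90 hours before reading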
# [14] = inhibitors of intracellular T. cruzi replication, confirmation, NIH3T3 host cells, beta-gal luminescence (AID 2044); assay type: functional, cell-based;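 further: intracellular parasites grown in NIH/3T3 mouse fibroblasts as host cells; luminescent beta-galactosidase reporter signal from transgenic T. cruzi replicating inside host cells; inhibitors lower the luminescence signal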
# Paired box protein Pax-8 = Paired box protein Pax-8 (Homo sapiens, UniProt Q06710); experiment: inhibitors of PAX8-driven TPO luciferase reporter, dose response, RMG-I cells, cherry-pick (AID 687027); assay type: functional, cell-based;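 further: luciferase reporter driven by Pax8 target thyroperoxidase promoter measured by SteadyGlo luminescence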
# Sequence of Paired box protein Pax-8 (Q06710 whole entry): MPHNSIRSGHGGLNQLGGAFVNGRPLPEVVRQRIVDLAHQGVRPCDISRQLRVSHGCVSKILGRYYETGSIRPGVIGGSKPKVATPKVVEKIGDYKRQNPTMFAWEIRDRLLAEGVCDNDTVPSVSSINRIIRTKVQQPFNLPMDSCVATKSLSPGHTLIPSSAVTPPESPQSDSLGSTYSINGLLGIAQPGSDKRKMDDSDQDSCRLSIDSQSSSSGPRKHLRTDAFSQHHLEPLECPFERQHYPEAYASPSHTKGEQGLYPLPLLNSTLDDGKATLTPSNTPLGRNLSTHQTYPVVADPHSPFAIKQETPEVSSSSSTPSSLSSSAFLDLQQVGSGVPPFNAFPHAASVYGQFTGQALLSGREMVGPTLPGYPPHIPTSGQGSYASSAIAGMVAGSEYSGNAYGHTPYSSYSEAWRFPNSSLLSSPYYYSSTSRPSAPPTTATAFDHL
# [15] = inhibitors of PGC1a acetylation in cells, dose response, cell-based, cherry-picked samples (AID 720514); assay type: functional;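 further: potency may reflect raised or lowered acetylation signal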
# [16] = Fluorescence-based cell-based high throughput dose response assay for inhibitors of the interaction of nucleotide-binding oligomerization domain containing 2 (NOD2) and the receptor-interacting serine-threonine kinase 2 (RIPK2).; assay type: functional; details: Homo sapiens
# HEK293 = experiment: inhibitors of LMP1-driven NF-kB reporter, dose response, cell-based, HEK293, luciferase, cherry-pick (AID 588343); assay type: functional; details: Homo sapiens
# Beta Lactamase = Beta Lactamase (Pseudomonas aeruginosa, UniProt Q932Y6); experiment: beta-lactamase reporter inhibitor potency, dose response, artefact control for TLR9-MyD88 binding inhibitor project, BLA reporter cells, FRET fluorescence (AID 588341); assay type: cell-based;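 further: cell based assay in CHO-K1 cells stably expressing beta-lactamase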
# Sequence of Beta Lactamase (Q932Y6 whole entry, the tested form may be a part): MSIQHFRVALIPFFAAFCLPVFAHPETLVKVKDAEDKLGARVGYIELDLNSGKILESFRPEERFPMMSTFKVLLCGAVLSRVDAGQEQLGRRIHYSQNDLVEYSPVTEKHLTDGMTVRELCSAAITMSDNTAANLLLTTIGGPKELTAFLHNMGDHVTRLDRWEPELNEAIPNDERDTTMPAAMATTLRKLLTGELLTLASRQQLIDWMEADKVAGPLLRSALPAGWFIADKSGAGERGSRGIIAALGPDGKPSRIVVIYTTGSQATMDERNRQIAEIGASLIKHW
# CHO = experiment: cytotoxicity in TLR9-MyD88 CHO cells, dose response, cytotoxicity control for TLR9-MyD88 binding inhibitor project, cell-based, luminescence (AID 588339); assay type: functional, hamster; details: Cricetulus griseus;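 further: CHO cells stably coexpressing TLR9 and MyD88 fusions from primary screen; compound exposure lasted 48 hours before viability readout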
# [17] = miR-122 activators in hepatoma reporter cells, dose response, cell-based, Huh7 psiCHECK-miR122, Renilla luciferase, cherry-picked (AID 651956); assay type: functional;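 further: huh7 hepatoma cells stably carrying a psiCHECK-2 miR-122 sensor plasmid; renilla luciferase signal reporting endogenous miR-122 activity after 48 h compound exposure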
# [18] = target: Heat shock protein HSP 90-alpha (Homo sapiens, UniProt P07900); assay type: functional, organism-based
# [19] = target: T3, Methionyl-tRNA synthetase, putative (Trypanosoma brucei brucei, UniProt Q38C91); assay type: functional, Trypanosoma brucei brucei strain 927/4 GUTat10.1
# T3 sequence (Q38C91 whole entry): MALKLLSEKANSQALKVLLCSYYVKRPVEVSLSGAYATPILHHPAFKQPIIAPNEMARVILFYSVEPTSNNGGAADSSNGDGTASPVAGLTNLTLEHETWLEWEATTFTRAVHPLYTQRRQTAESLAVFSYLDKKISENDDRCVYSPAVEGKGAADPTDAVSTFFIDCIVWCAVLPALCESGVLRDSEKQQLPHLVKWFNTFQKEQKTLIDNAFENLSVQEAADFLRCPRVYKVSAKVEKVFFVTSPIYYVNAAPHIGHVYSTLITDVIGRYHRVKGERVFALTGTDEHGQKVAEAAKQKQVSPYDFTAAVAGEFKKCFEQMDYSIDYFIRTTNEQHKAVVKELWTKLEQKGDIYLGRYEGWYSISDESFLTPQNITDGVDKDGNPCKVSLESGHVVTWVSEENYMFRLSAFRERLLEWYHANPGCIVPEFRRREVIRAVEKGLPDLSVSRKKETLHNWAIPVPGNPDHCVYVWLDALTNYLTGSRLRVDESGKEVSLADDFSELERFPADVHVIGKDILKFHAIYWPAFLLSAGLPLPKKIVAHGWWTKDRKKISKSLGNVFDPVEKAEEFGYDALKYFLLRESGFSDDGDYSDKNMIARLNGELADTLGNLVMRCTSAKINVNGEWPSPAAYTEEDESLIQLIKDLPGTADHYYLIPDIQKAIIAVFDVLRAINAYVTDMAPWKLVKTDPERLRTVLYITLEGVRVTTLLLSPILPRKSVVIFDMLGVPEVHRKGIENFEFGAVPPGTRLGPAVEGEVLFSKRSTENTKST
# [20] = Counterscreen for inhibitors of Trypanosoma brucei methionyl tRNA synthetase (MetRS): Luminescence-based cell-based high throughput dose response assay to identify compounds that are cytotoxic to Jurkat human T lymphocyte cells.; assay type: functional
# [21] = target: T3, Methionyl-tRNA synthetase, putative; assay type: functional, Trypanosoma brucei brucei strain 927/4 GUTat10.1; remark: listed apart in the source
# [22] = target: Photoreceptor-specific nuclear receptor (Homo sapiens, UniProt Q9Y5X4); assay type: functional, cell-based;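 further: CHO-S cells with Gal4-NCOR and VP16-NR2E3 two-hybrid luciferase reporter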
# Sequence of Photoreceptor-specific nuclear receptor (Q9Y5X4 whole entry, the tested form may be a part): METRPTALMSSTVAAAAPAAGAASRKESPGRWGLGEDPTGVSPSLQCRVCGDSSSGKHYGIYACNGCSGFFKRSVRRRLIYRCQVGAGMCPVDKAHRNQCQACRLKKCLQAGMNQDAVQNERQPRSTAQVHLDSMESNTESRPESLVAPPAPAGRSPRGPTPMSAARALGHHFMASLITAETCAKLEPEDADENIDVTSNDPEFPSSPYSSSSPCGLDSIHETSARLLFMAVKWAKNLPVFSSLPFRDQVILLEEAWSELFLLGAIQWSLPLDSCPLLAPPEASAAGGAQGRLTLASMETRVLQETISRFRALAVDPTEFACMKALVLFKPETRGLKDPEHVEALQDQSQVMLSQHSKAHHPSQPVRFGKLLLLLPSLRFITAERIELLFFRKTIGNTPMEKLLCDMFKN
# [23] = Luminescence Cell-Based Dose Retest to Confirm Inhibitors of Cancer Stem Cells. [Related pubchem assays (depositor defined):AID2717, AID2721]; assay type: functional; details: Homo sapiens
smiles,measurement,setting,value
O=C(O)CSc1cccc2cccnc12,AC50,[1],74.5 µM (active)
COc1ccc(NC(=O)CS(=O)(=O)c2ccc(C)cc2)c(OC)c1,IC50,[2],35.9 µM (inactive)
same,IC50,Steroidogenic factor 1,10 µM (inactive)
same,IC50,[3],12 µM (inactive)
O=C(COC(=O)c1ccc(=O)n(Cc2ccccc2)n1)Nc1ccc2c(c1)OCCO2,IC50,[2],35.9 µM (inactive)
same,IC50,Steroidogenic factor 1,35.9 µM (inactive)
same,IC50,[3],35.9 µM (inactive)
NS(=O)(=O)c1ccc(CCNc2nc3c(-c4cccc(F)c4)nnn3c3ccccc23)cc1,EC50,[4],> 120 µM (not active)
same,IC50,[5],11.2 µM (inactive)
same,EC50,[6],> 120 µM (not active)
same,EC50,[7],> 120 µM (not active)
O=C(NCc1ccccc1)C(c1ccccc1F)n1c(=O)c(-c2ccco2)nc2ccccc21 (stereo not given),IC50,[8],2.24 µM (active)
CN(C)CCCNc1nc2cc(-c3ccccc3)sc2c(=O)n1C,AC50,[9],40.3 µM (active)
same,AC50,[10],10.8 µM (active)
COc1ccc2c(c1)Cc1sc(NC(=O)c3ccco3)nc1-2,IC50,[11],45.8 µM (active)
Cc1ccc(S(=O)(=O)N(C)C[C@@H]2Oc3c(NC(=O)CCCCCC(=O)Nc4ccccc4N)cccc3C(=O)N([C@H](C)CO)C[C@@H]2C)cc1,AC50,[12],6.27 µM (active)
Cc1ccc2sc(N(CCCN(C)C)C(=O)CN3C(=O)c4ccccc4C3=O)nc2c1C,EC50,Melanocortin receptor 4,> 89.2 µM (inactive)
same,EC50,[13],> 60 µM (not active)
same,AC50,[10],13.8 µM (active)
same,EC50,[14],0.225 µM (active)
C#CCN(C[C@@H]1[C@@H](OC(=O)NCc2ccccc2F)[C@@H](OC(=O)NCc2ccccc2F)Cn2c(=O)ccc(=O)n21)S(=O)(=O)c1ccc(C)cc1,AC50,Paired box protein Pax-8,5.52 µM (active)
same,AC50,[15],2.58 µM (active)
same,IC50,[16],9.77 µM (active)
same,IC50,[8],8.93 µM (active)
same,AC50,HEK293,7.17 µM (active)
O=[N+]([O-])c1ccc(N/N=C/C=C/c2ccco2)cc1,IC50,Beta Lactamase,4.19 µM (active)
same,IC50,CHO,> 49.8 µM (inactive)
COc1ccc(S(=O)(=O)N(C)C[C@@H]2Oc3cc(-c4cccc(F)c4)ccc3S(=O)(=O)N([C@@H](C)CO)C[C@H]2C)cc1,AC50,[17],3.72 µM (active)
C[C@@H]1CN([C@H](C)CO)C(=O)Cc2cc(NS(=O)(=O)c3cccs3)ccc2O[C@@H]1CN(C)S(=O)(=O)c1ccc(Cl)cc1,AC50,[12],4.11 µM (active)
Clc1ccc(COC(Cn2ccnc2)c2ccc(Cl)cc2Cl)c(Cl)c1 (stereo not given) [MICONAZOLE],AC50,[18],< 0.195 µM (active)
same,IC50,[19],11.7 µM (inactive)
same,IC50,[20],33 µM (inactive)
same,IC50,[21],12.9 µM (inactive)
COCc1nnc(NC(=O)c2ccc(S(=O)(=O)N(CC(C)C)CC(C)C)cc2)o1,IC50,[22],8.81 µM (active)
CN1CCN(c2nc(-c3ccccn3)nc3ccccc23)CC1,AC50,[9],53.8 µM (active)
CC(C)NC(=O)Nc1ccc2c(c1)CC(=O)N([C@H](C)CO)C[C@@H](C)[C@@H](CN(C)Cc1ccc(Oc3ccccc3)cc1)O2,AC50,[1],132 µM (active)
C=CCN1C=C2C(=O)C(C)(OC(=O)CCC(=O)OC)C(=O)C=C2C=C1C1CC1 (stereo not given),IC50,[11],39.3 µM (active)
CC12CCC3C(CC=C4CC(O)CCC43C)C1C/C(=C\c1ccccc1F)C2=O (stereo not given),EC50,Melanocortin receptor 4,> 89.2 µM (inactive)
same,AC50,[23],2.76 µM (active)
C=CC[n+]1c(-c2ccc(Cl)cc2Cl)csc1Nc1ccc(NC(C)=O)cc1,IC50,[22],2.75 µM (active)
